According to PMC6891598, “Application of N-Dodecyl L-Peptide to Enhance Serum Stability while Maintaining Inhibitory Effects on Myometrial Contractions Ex Vivo” (Molecules, 2019):
Entries after “also recorded” stand apart in the source; their conditions may differ. Residues, ends and D or L forms follow the SMILES beside them.

Columns and labels:
[1] = system: LPS-induced preterm delivery in pregnant CD-1 mice; assay: LPS-induced mouse preterm birth (PTB) model; format: in vivo, mouse (CD-1); conditions: gestational day 16, LPS 10 μg/animal i.p., L-4d 20 mg/day/animal by s.c. osmotic pump after 0.1 mg/animal i.p. bolus, n = 5 (saline n = 4)
Procedure: (§1) The ability of peptide L-4d to delay labor in vivo was next tested in mice near term and treated with lipopolysaccharide (LPS) Escherichia coli endotoxin, as a pathogen associated molecular pattern, which is known to promote a general inflammatory state resulting in prostaglandin synthesis and induced premature delivery. Following LPS injection into mice (n = 4–5) at gestational day 16, all the animals tested delivered within 12−24 h.
Timed-pregnant CD-1 mice at 16 days gestation (normal term is 19.2 days) were anesthetized with isoflurane (2%). Primed osmotic pumps (Alzet pump, Alzet, Cupertino, CA) containing either saline (n = 4) or compound L-4d (20 mg/day/animal, n = 5) were respectively subcutaneously implanted on the backs of the animals; infusion of peptide was immediately preceded by bolus injection of peptide (0.1 mg/animal intraperitoneally). Within 15 min after placement of the pumps, animals were injected with lipopolysaccharide (LPS) Escherichia coli endotoxin (10 μg/animal intraperitoneally) to mimic the inflammatory/infectious component of human preterm labor. Animals were inspected every hour for the first 18 h and every 2 h thereafter to document the timing of birth. Results are expressed as percentages of animals delivered following the injection of LPS [57]. […]

[2] = serum stability study (mouse serum/plasma, MS/MS); format: in vitro ADME; conditions: mouse plasma (method: serum), 37 °C, incubation up to 2 hours, LC-MS/MS, internal standard L-4f
Procedure: Peptide L-4d was further examined for stability in serum and compared to L-PDC31. The two peptides were incubated at 37 °C in mouse plasma. Aliquots were removed at different time intervals and analyzed by mass spectrometry (MS/MS) to detect remaining amount of peptide (Figure 3).
Serum was […] and kept on ice throughout the procedure. Two blanks were prepared by adding 5 µL of DMSO to 95 µL of serum. These were incubated for 2 h and submitted to the same treatment as the other samples. Two series of vials containing 95 µL of serum were prepared and spiked with either 5 µL of L-PDC31 [0.4 mM] or L-4d [0.4 mM], and incubated for 120, 60, 30, 15, 10 and 5 min, respectively, after which 100 µL of 4% phosphoric acid was added. Two vials were also spiked with 5 µL L-PDC31 and L-4d, respectively, and immediately treated with phosphoric acid (time = 0 min). The vials were incubated for 5 min at 95 °C, cooled on ice for 2 min, treated with 600 µL of cold MeCN containing L-4f (0.02 mM) as internal standard, and incubated at –20 °C overnight. After the incubation period, the vials were vortexed for 2 min and centrifuged at 4 °C for 15 min. The supernatant was transferred into LC-MS vials and analyzed.
Results were expressed as: (AN/IS/AN0/IS0)∗100
AN and IS refer, respectively, to the analyte and internal standard MS signals. Both values are compared with initial injection at which time AN0 and IS0 were not incubated.

[3] = system: murine myometrial tissue (PGF2α-induced contractions; FP); assay: ex vivo mouse myometrial tissue contraction assay (PGF2α-induced); design: species or system mouse (CD-1); conditions: post-partum CD-1 mouse myometrial strips, Krebs buffer pH 7.4, 37 °C, 20 min pretreatment with peptide at two concentrations, then PGF2α; 4–6 experiments per group, means ± SEM, t-test, p < 0.05 vs vehicle
Procedure: (§2) All the peptides were initially tested in an ex vivo mouse myometrial tissue contraction assay. Contractile activity was measured on tissue that was harvested post-partum and treated with prostaglandin F2α (PGFα) alone (control) or in the presence of peptides L-4b-4g, L-7, and L-8. […] Mean tension induced by KCl (as a positive control) was not affected by L-4d.
Pregnant CD-1 mice (16-17 days gestation, term 19 days) were obtained from Charles River Inc. and used according to a protocol of the Animal Care Committee of Hôpital Sainte-Justine according to the principles of the Guide for the Care and Use of Experimental Animals of the Canadian Council on Animal Care. The animals were maintained on standard laboratory chow under a 12:12 light:dark cycle and allowed free access to chow and water.
(§3) The uterus from the CD-1 mouse was obtained from the animal immediately after term delivery under anesthesia (2.5% isoflurane). Briefly, a midline abdominal incision was made and the uterine horns were rapidly excised, cleansed carefully of the surrounding connective tissues, and removed. Longitudinal myometrial strips (2 to 3 mm wide and 1 cm long) were dissected free from the uterus and mounted isometrically in organ tissue baths. The initial tension was set at 2 g. The tissue baths contained 20 mL of Krebs buffer of the following composition (in mM): 118 NaCl, 4.7 KCl, 2.5 CaCl2, 0.9 MgSO4, 1 KH2PO4, 11.1 glucose, and 23 NaHCO3 (pH 7.4). The buffer was equilibrated with 95% oxygen/5% carbon dioxide at 37 °C. Isometric tension was measured by a force transducer and recorded by a BIOPAC data acquisition system (BIOPAC MP150, Montreal, PQ, Canada). Experiments were begun after 1 h equilibration. Mean tension of spontaneous contractions was measured using a BIOPAC digital polygraph system (AcqKnowledge); the same parameters were also determined after addition of PGF2α in the presence or the absence of a 20 min-pretreatment with different FP inhibitors. At the start of each experiment, mean tension of spontaneous myometrial contractions was considered as a reference response. Changes in mean tension (g) were expressed as percentages of the initial reference response (% of baseline).
At the start of each experiments, mean tension of spontaneous myometrial contractions was considered as a reference response. Increase in mean tension (%) was expressed as percentages of (X/Y)-100, where X is the change in mean tension (g) induced by PGF2α and Y is the initial reference response (g). Data are representative of 4–6 experiments per treated group. All results are expressed as means ± SEM and were compared by Independent t-tests. Statistical tests were performed with GraphPad Prism 4.3 software and p < 0.05 was considered statistically significant.

[4] = system: murine myometrial tissue (KCl-induced tension); assay: mean tension induced by KCl (positive control) in mouse myometrial tissue; design: species or system mouse (CD-1); conditions: post-partum mouse myometrial tissue
Procedure: as §2
as §3, with “The tissue baths contained 20 mL of Krebs buffer of the following composition (in mM): 118 NaCl, 4.7 KCl, 2.5 CaCl2, 0.9 MgSO4, 1 KH2PO4, 11.1 glucose, and 23 NaHCO3 (pH 7.4). The buffer was equilibrated with 95% oxygen/5% carbon dioxide at 37 °C.” left out, “Experiments were begun after 1 h equilibration.” left out, “At the start of each experiment, mean tension of spontaneous myometrial contractions was considered as a reference response.” left out

[5] = system: prostaglandin F2α receptor (FP); conditions: FP inhibition, cited from earlier work
Procedure: The development of PDC31 originated from a library of sequences based on the second extracellular loop of FP. Short lead peptides were analyzed initially using in vitro and ex vivo analyses. […] Moreover, addition of the dodecyl chain enhanced plasma stability.

[6] = system: intrauterine pressure and pain in women with primary dysmenorrhea; conditions: phase Ib; cited from earlier work
Description: The prostaglandin F2α receptor (FP) is a promising target for delaying labor because of its relevant involvement in parturition. At the beginning of labor and preterm labor, FP expression increases. […] Targeting FP, the tocolytic prototype PDC31 is currently undergoing clinical trials.

[7] = system: murine myometrial tissue (PGF2α-induced contractions; FP); conditions: cited from earlier work
Description: Moreover, addition of the dodecyl chain enhanced plasma stability.

[8] = system: LPS-induced preterm delivery in pregnant CD-1 mice; conditions: cited from earlier work
Procedure: as §1

Row | Compound | ability to delay labor (time of delivery) in LPS-induced PTB model [1] | stability in mouse plasma, in words [2] | effect on PGF2α-induced contractions (mean tension) of myometrial tissue [3] | effect on mean tension induced by KCl (positive control) [4] | efficacy [5] [%] | IC50 ([5]; read-out: potency (IC50)) [nM] | safety and effect on intrauterine pressure and pain [6] | effect on spontaneous and PGF2α-induced contractions in postpartum mice myometrium [7] | ability to delay labor in the PTB model [8]
1 | CCCCCCCCCCCCN[C@H](C(=O)N[C@@H](CC(C)C)C(=O)NCC(=O)N[C@@H](Cc1c[nH]cn1)C(=O)N[C@@H](CCCNC(N)=O)C(=O)N[C@@H](CC(=O)O)C(=O)N[C@@H](Cc1ccc(O)cc1)C(=O)N[C@@H](CCCCN)C(=O)O)[C@@H](C)CC [L-4d, N-Dodecyl-Ile-Leu-Gly-His-Cit-Asp-Tyr-Lys-OH] (HELM PEPTIDE1{[CCCCCCCCCCCCN[C@H](C(=O)[*:2])[C@@H](C)CC].L.G.H.[Cit].D.Y.K}$$$$V2.0) | unable to exhibit a statistically significant reduction in the time of delivery; also recorded: failed to prolong labor in vivo; also recorded: inactive in vivo; also recorded: no significant ability to delay labor | still present after 2 hours of incubation | significant reduction of contractions; also recorded: able to reduce uterine contractions induced by PGF2α; also recorded: significant reduction of PGF2α-induced contractility | not affected |  |  |  |  | 
2 | H-ile-leu-Gly-his-cit-asp-tyr-lys-OH [PDC31] |  |  |  |  | > 85 | 13 | safe in reducing intrauterine pressure and pain associated with excessive uterine contractility | reduce both the strength and length of spontaneous and PGF2α-induced contractions | delay labor
